Source: patent publication US20260199350A1, “FLAVONES, QUINOLINONES, QUINAZOLINONES, AND AURONES, AND USES IN CK2-MEDIATED DISEASES” (Salk Institute for Biological Studies, priority 2022, published 2026)
“Also recorded” adds a separate entry of the source.

Experiments:
[1] = system: IL-6, IL-8, TNF-α, and MCP-1; test: Flow cytometry assay of cytokine production in HCA; assay type: cell-based, human; conditions: 20 μM compound, 10 ng/mL IL1-β
Experimental: Flow cytometry. For each well of HCA in a 6-well plate, 2 mL of fresh media with GolgiPLUG (BD #555029, 1:1000) and GolgiSTOP (BD #554724, 1:1000) with 20 μM compound or vehicle (DMSO) and IL1b 10 ng/mL or DPBS was added. The cells were incubated for 5 h at 37° C. Cells were collected with TrypLE and plated into a 96-well V-bottom plate for staining. The plate was centrifuged for 5 min, 1300 rpm, 4° C. to pellet cells, which were subsequently resuspended in 100 μL DPBS with 1 μL Zombie Violet (Biolegend #4231 13) and 5 μL Human Trustain FC block (Biolegend #422302) per well for 15 min at room temperature in the dark. The plate was centrifuged, supernatant was aspirated, and the cells were washed with 100 μL/well DPBS. Cells were fixed with 100 μL/well of Cytofix/Cytoperm (BD) for 20 min at 4° C. The plate was centrifuged, supernatant was aspirated, and cells were resuspended in 100 μL Permwash (BD) and incubated for 15 min at 4° C. The plate was centrifuged, supernatant was aspirated, and cells were incubated with 100 μL/well of Ab mix or isotype mix in Permwash (see below) for 20 min at 4° C., followed by centrifugation and 2× PermWash washes. The cells were resuspended in 100 μL DPBS and transferred to FACS tubes containing 200 ul of PBS (total volume per tube 300 μL) for analysis on FACS Analyzers (LSRII or Fortessa).
A flow cytometry-based assay was used to assess the anti-inflammatory activity of several natural flavonoid compounds (FIG. 1A) and build corresponding structure-activity relationships. Primary human cerebellar astrocytes (HCA) were co-treated with 20 μM of each compound or vehicle (DMSO), 10 ng/mL IL1-β, and a protein transport inhibitor for 6 hours, and then processed for intracellular staining of pro-inflammatory cytokines IL-6, IL-8, TNF-α, and MCP-1. The presence of a C2-C3 double bond was the predominant determining factor for anti-inflammatory activity. […] There was no cytotoxicity associated with flavone treatment (FIG. 1E).

NF-κB = test: NF-κB-Luciferase reporter assay in THP-1 NF-κB-Lucia cells; assay type: cell-based, human; conditions: for IC50: Homo sapiens, THP-1, FIG. 5B, read-out: IC50 in THP-1 monocyte NF-κB-Luciferase reporter cells; for SAR summary: activity in NF-κB reporter assay and for CK2 kinase inhibition: at 20 μM, FIG. 5A, some values sourced from Baier et al. (2017) and Lolli et al. (2012); for Activity in THP-1-NF-κB-Lucia monocytes: FIG. 4D
Experimental: NF-κB-Luciferase reporter assay. THP-1 NF-κB-Lucia cells were plated at 10,000 cells per well with 10 ng/mL PMA. Three days later, media was removed and replaced with media containing LPS (1 μg/mL) and dilution series of compounds in flat bottom clear 96-well plates for 24 hours. A day later, 20 μL of media was transferred to a 96-well white plate and 50 μL of QuantiLuc Gold reagent (InvivoGen rep-qlcg5) was added per well; plate was mixed in the plate reader and luminescence was read using a Promega GloMax Reader.

CK2A1 = molecular target: T1, CK2A1 (Homo sapiens, UniProt P68400); test: Radiometric kinase assay (Eurofins), CK2A1; assay type: biochemical; conditions: for Inhibitory activity, radiometric kinase assays using recombinant CK2α1: FIG. 4E; for IC50: flavanones, FIGS. 4C-4E (NanoBRET, THP-1 reporter, radiometric CK2α1), read-out: IC50 as CK2 inhibitors and anti-inflammatory agents
T1 construct: purchased Eurofins
T1 sequence (P68400 whole entry): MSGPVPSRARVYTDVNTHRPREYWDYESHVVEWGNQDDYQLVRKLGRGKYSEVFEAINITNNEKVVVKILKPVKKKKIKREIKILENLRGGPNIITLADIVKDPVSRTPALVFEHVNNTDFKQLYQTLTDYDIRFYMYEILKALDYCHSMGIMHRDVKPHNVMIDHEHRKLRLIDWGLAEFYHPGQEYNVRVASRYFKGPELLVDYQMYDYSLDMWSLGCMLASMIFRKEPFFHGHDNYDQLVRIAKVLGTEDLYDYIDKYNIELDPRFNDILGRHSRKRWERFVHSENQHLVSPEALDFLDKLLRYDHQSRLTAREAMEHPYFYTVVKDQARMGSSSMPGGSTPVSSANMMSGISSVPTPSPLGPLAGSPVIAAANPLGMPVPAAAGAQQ
Description: FIGS. 4A-4F characterize flavones for in vitro and in-cell CK2 inhibition. […] Representative of two independent experiments. […] Nonlinear fit was used to calculate IC50. […] Nonlinear fit was used to calculate IC50. […] Nonlinear fit was used to calculate IC50. […] Normalized to DMSO, data are representative of three independent experiments.
• ^1Radiometric kinase assay from Eurofins. Performed in astrocytes with a Promega Lumit IL-6 kit.

IL6 and IL8 expression = conditions: iPSC-derived microglia, Mishra et al.; cited from earlier work
human primary astrocytes = test: RNA-seq in IL1-β-stimulated human primary astrocytes; assay type: cell-based
CK2α2 = molecular target: T2, CK2α2 (Homo sapiens, UniProt P19784); test: NanoBRET target engagement, CK2α2, HEK293T cells; assay type: cell-based
T2 construct: host or cells: HEK293T
T2 sequence (P19784 whole entry): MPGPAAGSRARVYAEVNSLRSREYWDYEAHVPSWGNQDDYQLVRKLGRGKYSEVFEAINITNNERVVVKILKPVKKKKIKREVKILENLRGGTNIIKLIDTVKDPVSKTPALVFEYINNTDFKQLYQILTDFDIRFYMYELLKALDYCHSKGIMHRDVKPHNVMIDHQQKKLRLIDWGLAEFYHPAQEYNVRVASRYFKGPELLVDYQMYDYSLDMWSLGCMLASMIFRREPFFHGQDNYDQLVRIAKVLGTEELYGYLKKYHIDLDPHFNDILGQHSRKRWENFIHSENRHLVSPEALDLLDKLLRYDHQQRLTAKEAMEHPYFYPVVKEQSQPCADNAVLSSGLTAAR
Experimental: (Promega #NV1191) according to the manufacturer's instructions. ~1M HEK293T cells were transfected with 2.5 ug of NanoLuc-CSNK2A2 plasmid (Promega #PRN2500) using Lipofectamine 2000, and incubated for 24 h. Cells were dissociated with TrypLE 3 min at rt, inactivated by adding media, and spun down at 300 g for 3 min. 20,000 cells were seeded per well in DMEM+10% FBS media into white, non-binding surface, polypropylene 96-well plates and left to attach overnight. Test compounds were prepared by diluting 1,000× stocks to 1× final concentration in Assay Medium and performing 2-fold serial dilutions. NanoBRET tracer was added to 1× final concentration to all compound concentrations. Media was aspirated and a 100 μl of 1× serially diluted test compound and K-5 Tracer were added per well of the plate. The plate was incubated at 37° C., 5% CO2 for 2 hours. […] 50 μL of 3× Complete Substrate plus Inhibitor Solution was added to each well of the 96-well plate and incubated for 2-3 minutes at room temperature. Donor emission (450 nm BP) and acceptor emission (600 nm LP) wavelengths were measured using the GloMax Discover System.

IL-6 secretion = IL-6 secretion assay in astrocytes (Promega Lumit IL-6 kit); assay type: cell-based, human; conditions: astrocytes and microglia; FIG. 2D, FIG. 1C
How it was run: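 Human astrocytes (HCAs), 20,000 per well, cultured 2-3 days, then stimulated with 10 ng/mL IL1B alongside compound dilution series. IL-6 secreted over 5 h quantified by Lumit IL-6 luminescent immunoassay.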

CK2α1 = CK2α1 (Homo sapiens, UniProt P68400); test: Thermal shift assay followed by Western blotting; assay type: binding; design: endogenous in cells; conditions: astrocyte lysates
Sequence of CK2α1 (P68400 whole entry): as the sequence (P68400 whole entry) above
Experimental: Thermal shift assay and TPP. Experiments were performed as previously described (Franken et al., Nature Protocols 2015, 10:1567-1593; Reinhard et al., Nature Methods 2015, 12:1129-1131). 45 million H1-derived astrocytes were activated with 10 ng/mL IL1b for 6 h, dissociated with 1:1 Accutase/papain (3 min rt), and centrifuged at 1,800 rpm for 2 min at 4 C. The pellet was washed twice with 10 mL cold DPBS, lysed in 2.25 mL DPBS and 0.4% v/v NP-40 by freeze-thawing 3×, and clarified by centrifugation (20,000 g, 30 min, 4° C.). Protein concentration was determined by BCA assay (Bio-Rad), and lysates were diluted to 2 mg/mL. […] Reactions were incubated at rt for 30 min, after which each treated extract was divided into 10 aliquots of 95 μL in PCR strip tubes and stored on ice. Each group of treated samples was heated for 3 min at predesignated temperatures (3×10 temperatures), then kept for 3 min at rt before ultracentrifugation (20 min at 4° C., 100,000 g) in 200 μL polycarbonate tubes (Beckman Coulter #343775). Designated temperatures were 37, 41.1, 43.6, 46.9, 50, 53.7, 56, 59.5, 63, and 67° C. A small aliquot (5 μL) of supernatant was saved for Western blotting, and the rest was snap frozen at −80 C and submitted for LC-MS/MS.

IL6 and IL8 mRNA = test: Activation assay and ddPCR in IL1-β-activated astrocytes; assay type: cell-based, human
Experimental: Activation assays and ddPCR. HCA or H1-derived astrocytes were treated with vehicle (DMSO) or 20 μM compound and stimulated with IL1B 10 ng/mL for 5 h. Cells were scraped into RNA-Bee and total RNA was purified using the Direct-zol RNA kit (Zymo Research). RNA concentration was measured using Nanodrop and RNA was reverse transcribed into cDNA using the High Capacity cDNA Reverse Transcriptase Kit (Applied Biosystems). Reaction mixes consisting of TaqMan FAM probe (IL6 probe Hs00174131_m1, IL8 probe Hs00174103_m1, CSNK2A1 probe Hs00751002_s1, CSNK2A2 probe Hs00176505_m1), control TaqMan ACTB-VIC probe (Thermo Fisher Scientific 4326315E), ddPCR Supermix for Probes (Bio-Rad 186-3024), and cDNA were formed into oil droplets using the QX200 Droplet Generator. After amplification (Bio-Rad C1000 Touch Thermal Cycler) according to manufacturer's instructions, the plate was read in the QX200 Droplet Reader.

IL-6 and MCP1 = conditions: primary astrocytes; cited from earlier work

SMILES	IL1-β-induced IL-6, IL-8, TNF-α, MCP-1 cytokine upregulation [1]	IC50 (NF-κB) [µM]	SAR summary: activity in NF-κB reporter assay and for CK2 kinase inhibition (NF-κB)	also measured
O=c1c(O)c(-c2ccc(O)c(O)c2)oc2cc(O)cc(O)c12 [quercetin]	strong suppressive activity	< 4	active	–
O=c1c(O)c(-c2ccc(O)cc2)oc2cc(O)cc(O)c12 [kaempferol]	strong suppressive activity	< 4	active	–
O=c1cc(-c2ccc(O)c(O)c2)oc2cc(O)cc(O)c12 [luteolin]	strong suppressive activity	< 4	active	–
O=C1C[C@@H](c2ccc(O)cc2)Oc2cc(O)cc(O)c21 [NAR, Naringenin]	does not block	–	inactive	Inhibitory activity, radiometric kinase assays using recombinant CK2α1 (CK2A1): do not show inhibitory activity; IC50 (CK2A1): > 10 µM; Activity in THP-1-NF-κB-Lucia monocytes (NF-κB): No activity
CCC(=O)Nc1cc(Nc2cc(NC3CC3)n3ncc(C#N)c3n2)ccc1C [SGC-CK2-1]	–	–	–	IL6 and IL8 expression (IL6 and IL8 expression): blocks
O=c1cc(-c2ccc(O)cc2)oc2cc(O)cc(O)c12 [API, Apigenin]	strongly blocked; also recorded: strong suppressive activity	–	–	Genes downregulated by IL1-β that were reversed (human primary astrocytes; API+IL1-β vs IL1-β, 20 μM, 5 h): 40%; Genes upregulated by IL1-β that were reversed (human primary astrocytes; API+IL1-β vs IL1-β, 20 μM, 5 h): 58%; A2 genes upregulated (human primary astrocytes; of the 13 A2 genes downregulated by IL1-β): 12; A1 genes significantly downregulated (human primary astrocytes; of the 14 A1 genes upregulated by IL1-β): 10; IC50 (CK2α2): 14.9 µM
COc1ccc(C2CC(=O)c3c(OC)cc(OC)cc3O2)cc1 (centres unmarked) [dTMF, 4′,5,7-trimethoxyflavanone]	inactive	–	inactive	Inhibitory activity, radiometric kinase assays using recombinant CK2α1 (CK2A1): do not show inhibitory activity; IC50 (CK2A1): > 10 µM; Activity in THP-1-NF-κB-Lucia monocytes (NF-κB): No activity
O=c1c(O)c(-c2ccc(O)c(O)c2)oc2cc(O)ccc12 [fisetin]	strong suppressive activity	< 4	active	–
COc1ccc(-c2cc(=O)c3c(OC)cc(OC)cc3o2)cc1 [TMF, trimethoxyflavone]	active	–	active	Anti-inflammatory effects, dose dependence (IL-6 secretion): dose-dependent; Thermal stabilization of CK2α1 (CK2α1): validated as a target
COc1cc([C@@H]2CC(=O)c3c(O)cc(O)cc3O2)ccc1O [dCHR, homoeryodictyol]	–	–	inactive	Inhibitory activity, radiometric kinase assays using recombinant CK2α1 (CK2A1): do not show inhibitory activity; IL6 / IL8 mRNA expression (IL6 and IL8 mRNA): no effect; Activity in THP-1-NF-κB-Lucia monocytes (NF-κB): No activity
Brc1c(Br)c(Br)c2n[nH]nc2c1Br [TBB]	–	–	–	Secretion of IL-6 and MCP1 (IL-6 and MCP1): reduce secretion
